Measured values taken from ChEMBL document CHEMBL1128729, “Alpha- and beta-adrenoceptors: from the gene to the clinic. 2. Structure-activity relationships and therapeutic applications” (J Med Chem, 1995).

Columns and labels:
[1] = target: T1, Alpha-1A adrenergic receptor (Homo sapiens, UniProt P35348); experiment: biochemical
T1 sequence (P35348 whole entry): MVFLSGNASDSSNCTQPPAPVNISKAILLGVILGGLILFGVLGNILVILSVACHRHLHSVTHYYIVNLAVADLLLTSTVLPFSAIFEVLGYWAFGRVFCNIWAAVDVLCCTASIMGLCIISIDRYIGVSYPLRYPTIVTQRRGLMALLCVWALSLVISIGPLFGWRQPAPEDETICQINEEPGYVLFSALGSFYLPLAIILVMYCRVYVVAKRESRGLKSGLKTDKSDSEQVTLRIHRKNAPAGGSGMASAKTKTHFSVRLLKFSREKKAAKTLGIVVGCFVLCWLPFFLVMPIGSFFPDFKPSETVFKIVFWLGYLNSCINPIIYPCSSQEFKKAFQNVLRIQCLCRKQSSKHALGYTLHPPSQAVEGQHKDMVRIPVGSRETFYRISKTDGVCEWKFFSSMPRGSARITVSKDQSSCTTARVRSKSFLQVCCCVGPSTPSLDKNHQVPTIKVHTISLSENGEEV
Description: Inhibition of [3H]prazosin binding to human Alpha-1A adrenergic receptor expressed in CHO cells

[2] = target: Voltage-dependent L-type calcium channel subunit alpha-1C (Rattus norvegicus, UniProt P22002); experiment: biochemical
Chain of Voltage-dependent L-type calcium channel subunit alpha-1C (P22002 whole entry): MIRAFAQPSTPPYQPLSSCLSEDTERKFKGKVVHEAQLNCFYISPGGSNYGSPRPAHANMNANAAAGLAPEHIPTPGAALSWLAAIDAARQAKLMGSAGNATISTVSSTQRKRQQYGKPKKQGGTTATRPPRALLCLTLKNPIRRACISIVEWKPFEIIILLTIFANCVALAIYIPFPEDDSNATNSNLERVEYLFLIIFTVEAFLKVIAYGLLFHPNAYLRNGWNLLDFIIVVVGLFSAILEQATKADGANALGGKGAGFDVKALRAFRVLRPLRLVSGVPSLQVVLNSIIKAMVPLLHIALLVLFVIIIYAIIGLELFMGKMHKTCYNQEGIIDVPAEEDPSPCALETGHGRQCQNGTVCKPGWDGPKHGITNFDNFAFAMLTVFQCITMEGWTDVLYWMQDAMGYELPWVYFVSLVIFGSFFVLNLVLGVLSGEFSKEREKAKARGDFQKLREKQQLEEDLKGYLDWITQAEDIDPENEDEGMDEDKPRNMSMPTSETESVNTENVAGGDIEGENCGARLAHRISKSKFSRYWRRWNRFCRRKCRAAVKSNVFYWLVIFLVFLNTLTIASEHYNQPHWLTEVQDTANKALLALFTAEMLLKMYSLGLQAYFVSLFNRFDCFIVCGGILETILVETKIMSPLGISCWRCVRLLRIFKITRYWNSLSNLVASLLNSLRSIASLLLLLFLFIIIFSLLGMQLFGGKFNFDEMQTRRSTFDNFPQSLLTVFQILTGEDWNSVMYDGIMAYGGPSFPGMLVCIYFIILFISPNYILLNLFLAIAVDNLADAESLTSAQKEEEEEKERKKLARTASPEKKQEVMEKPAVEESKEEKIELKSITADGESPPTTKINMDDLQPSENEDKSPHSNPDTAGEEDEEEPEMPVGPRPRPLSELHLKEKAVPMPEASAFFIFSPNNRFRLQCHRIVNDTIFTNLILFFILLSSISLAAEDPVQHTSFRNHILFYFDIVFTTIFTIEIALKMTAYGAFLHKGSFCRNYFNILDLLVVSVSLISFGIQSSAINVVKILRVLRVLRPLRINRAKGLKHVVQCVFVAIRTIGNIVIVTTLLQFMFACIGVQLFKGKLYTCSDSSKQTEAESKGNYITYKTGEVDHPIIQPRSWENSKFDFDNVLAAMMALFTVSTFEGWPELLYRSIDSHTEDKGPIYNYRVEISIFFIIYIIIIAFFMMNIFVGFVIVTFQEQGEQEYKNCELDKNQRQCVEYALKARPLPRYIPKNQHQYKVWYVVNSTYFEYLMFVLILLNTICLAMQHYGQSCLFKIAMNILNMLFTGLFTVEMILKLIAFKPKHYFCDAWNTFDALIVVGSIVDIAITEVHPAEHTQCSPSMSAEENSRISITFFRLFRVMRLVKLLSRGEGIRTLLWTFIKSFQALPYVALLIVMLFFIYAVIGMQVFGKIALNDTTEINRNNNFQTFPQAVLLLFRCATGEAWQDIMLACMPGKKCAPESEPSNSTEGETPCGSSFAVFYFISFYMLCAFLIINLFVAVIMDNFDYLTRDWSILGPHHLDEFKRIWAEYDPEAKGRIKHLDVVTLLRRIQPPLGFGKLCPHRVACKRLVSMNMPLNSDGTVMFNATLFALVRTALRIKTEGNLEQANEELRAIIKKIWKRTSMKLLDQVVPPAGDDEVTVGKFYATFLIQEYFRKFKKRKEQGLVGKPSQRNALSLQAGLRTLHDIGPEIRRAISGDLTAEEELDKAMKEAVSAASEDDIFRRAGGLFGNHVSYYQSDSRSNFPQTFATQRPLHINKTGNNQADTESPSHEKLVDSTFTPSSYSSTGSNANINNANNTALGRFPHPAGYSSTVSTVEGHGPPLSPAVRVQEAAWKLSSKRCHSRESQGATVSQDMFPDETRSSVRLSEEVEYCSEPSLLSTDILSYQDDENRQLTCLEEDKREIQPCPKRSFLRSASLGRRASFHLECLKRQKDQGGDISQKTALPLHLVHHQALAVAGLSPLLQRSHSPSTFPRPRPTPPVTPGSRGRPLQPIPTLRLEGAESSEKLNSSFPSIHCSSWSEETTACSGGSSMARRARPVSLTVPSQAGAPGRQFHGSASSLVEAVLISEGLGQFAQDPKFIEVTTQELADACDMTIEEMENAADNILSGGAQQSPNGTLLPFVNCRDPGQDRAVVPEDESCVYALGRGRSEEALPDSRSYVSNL
Description: Inhibition of [3H]nitrendipine binding to membrane homogenates of rat cardiac muscle.

[3] = target: Beta-2 adrenergic receptor (Cavia porcellus, UniProt Q8K4Z4); experiment: Effective dose for relaxation of guinea pig trachea.
Chain of Beta-2 adrenergic receptor (Q8K4Z4 whole entry): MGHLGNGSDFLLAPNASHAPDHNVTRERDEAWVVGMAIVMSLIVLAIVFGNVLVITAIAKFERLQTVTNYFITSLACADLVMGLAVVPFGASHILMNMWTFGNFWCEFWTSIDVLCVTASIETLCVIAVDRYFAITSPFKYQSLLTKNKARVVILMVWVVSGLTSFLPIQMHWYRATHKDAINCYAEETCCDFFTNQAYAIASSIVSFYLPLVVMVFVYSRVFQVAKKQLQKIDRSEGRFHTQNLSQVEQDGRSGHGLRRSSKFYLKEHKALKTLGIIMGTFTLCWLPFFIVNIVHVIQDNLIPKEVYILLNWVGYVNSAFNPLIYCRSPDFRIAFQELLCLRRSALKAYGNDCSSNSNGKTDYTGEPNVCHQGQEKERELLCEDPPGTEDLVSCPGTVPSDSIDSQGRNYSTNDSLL

[4] = target: Beta-1 adrenergic receptor (Cavia porcellus, UniProt B0FL73); experiment: Effective dose required to stimulate contractions in isolated guinea pig atrium.; format: functional, tissue-based, Cardiac atrium
Chain of Beta-1 adrenergic receptor (B0FL73 whole entry): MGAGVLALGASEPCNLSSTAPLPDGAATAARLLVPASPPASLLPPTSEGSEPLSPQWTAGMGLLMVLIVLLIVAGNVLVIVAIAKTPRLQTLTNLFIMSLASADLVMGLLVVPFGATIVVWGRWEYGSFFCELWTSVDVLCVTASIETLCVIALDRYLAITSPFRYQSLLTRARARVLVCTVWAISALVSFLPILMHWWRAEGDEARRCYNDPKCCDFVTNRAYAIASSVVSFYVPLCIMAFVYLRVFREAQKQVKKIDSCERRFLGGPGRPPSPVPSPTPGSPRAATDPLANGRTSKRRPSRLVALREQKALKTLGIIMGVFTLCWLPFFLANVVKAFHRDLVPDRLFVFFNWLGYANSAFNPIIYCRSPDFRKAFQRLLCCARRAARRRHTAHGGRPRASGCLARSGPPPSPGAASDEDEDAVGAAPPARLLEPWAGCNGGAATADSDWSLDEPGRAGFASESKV

[5] = target: T2, Alpha-2C adrenergic receptor (Homo sapiens, UniProt P18825); experiment: biochemical
T2 sequence (P18825 whole entry): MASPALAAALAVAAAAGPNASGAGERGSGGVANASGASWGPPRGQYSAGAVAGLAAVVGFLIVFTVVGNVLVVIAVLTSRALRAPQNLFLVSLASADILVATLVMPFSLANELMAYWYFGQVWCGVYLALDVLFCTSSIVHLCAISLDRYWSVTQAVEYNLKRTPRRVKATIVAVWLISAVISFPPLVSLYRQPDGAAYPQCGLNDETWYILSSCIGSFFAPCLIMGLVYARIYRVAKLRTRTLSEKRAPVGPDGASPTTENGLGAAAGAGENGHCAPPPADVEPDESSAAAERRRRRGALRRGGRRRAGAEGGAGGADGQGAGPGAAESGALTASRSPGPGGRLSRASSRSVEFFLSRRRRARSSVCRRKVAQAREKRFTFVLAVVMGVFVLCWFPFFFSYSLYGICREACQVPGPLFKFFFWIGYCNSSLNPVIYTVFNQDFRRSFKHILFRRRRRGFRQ

[6] = target: T3, Alpha-2A adrenergic receptor (Homo sapiens, UniProt P08913); experiment: biochemical
T3 sequence (P08913 whole entry): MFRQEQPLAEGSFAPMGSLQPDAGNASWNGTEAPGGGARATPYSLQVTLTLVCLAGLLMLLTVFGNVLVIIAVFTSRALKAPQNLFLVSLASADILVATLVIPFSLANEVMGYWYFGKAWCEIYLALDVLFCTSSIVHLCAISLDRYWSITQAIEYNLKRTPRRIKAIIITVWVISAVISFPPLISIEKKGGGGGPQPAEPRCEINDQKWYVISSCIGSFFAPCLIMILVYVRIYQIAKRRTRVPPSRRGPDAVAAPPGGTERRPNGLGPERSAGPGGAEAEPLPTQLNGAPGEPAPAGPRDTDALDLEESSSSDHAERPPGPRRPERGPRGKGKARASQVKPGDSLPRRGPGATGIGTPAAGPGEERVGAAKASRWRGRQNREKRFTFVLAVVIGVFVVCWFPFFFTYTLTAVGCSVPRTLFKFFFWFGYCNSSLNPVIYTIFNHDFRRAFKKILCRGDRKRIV

[7] = target: T4, Alpha-1D adrenergic receptor (Homo sapiens, UniProt P25100); experiment: biochemical
T4 sequence (P25100 whole entry): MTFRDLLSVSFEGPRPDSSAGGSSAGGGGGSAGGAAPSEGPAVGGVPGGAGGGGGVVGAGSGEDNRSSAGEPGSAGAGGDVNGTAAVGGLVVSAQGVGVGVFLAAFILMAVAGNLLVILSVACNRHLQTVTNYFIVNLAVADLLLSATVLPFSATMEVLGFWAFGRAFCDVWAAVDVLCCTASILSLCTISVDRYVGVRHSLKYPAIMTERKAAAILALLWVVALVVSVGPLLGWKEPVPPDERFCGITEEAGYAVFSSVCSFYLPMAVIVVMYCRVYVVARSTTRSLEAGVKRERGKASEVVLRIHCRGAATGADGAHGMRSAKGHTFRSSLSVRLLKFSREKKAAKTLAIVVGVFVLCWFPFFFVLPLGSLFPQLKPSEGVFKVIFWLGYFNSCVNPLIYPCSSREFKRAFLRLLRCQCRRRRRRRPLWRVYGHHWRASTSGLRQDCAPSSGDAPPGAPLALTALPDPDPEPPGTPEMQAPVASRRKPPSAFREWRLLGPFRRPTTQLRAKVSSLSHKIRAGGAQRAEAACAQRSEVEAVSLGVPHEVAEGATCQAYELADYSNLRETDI
Description: Inhibition of [3H]prazosin binding to human Alpha-1D adrenergic receptor expressed in CHO cells

[8] = target: T5, Alpha-1B adrenergic receptor (Homo sapiens, UniProt P35368); experiment: biochemical
T5 sequence (P35368 whole entry): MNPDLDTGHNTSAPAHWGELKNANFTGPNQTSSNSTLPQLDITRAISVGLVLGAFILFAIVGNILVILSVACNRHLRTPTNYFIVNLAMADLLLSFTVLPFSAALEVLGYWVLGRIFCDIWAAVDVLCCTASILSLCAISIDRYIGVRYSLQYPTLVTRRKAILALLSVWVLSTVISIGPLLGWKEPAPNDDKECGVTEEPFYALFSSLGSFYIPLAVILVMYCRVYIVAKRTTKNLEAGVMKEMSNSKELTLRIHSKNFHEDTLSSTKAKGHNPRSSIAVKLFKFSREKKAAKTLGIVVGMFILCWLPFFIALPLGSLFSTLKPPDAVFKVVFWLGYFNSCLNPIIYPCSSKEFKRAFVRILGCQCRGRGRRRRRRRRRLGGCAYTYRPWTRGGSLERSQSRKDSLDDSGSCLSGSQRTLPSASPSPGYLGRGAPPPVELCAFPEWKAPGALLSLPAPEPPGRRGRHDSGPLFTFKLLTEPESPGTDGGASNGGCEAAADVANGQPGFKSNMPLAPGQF
Description: Inhibition of [3H]prazosin binding to human Alpha-1B adrenergic receptor expressed in CHO cells

Canis familiaris = species on record: Canis familiaris; experiment: Ability to block B-HT 920-induced contraction in canine saphenous vein.; format: functional; settings: Canis lupus familiaris
Oryctolagus cuniculus = species on record: Oryctolagus cuniculus; experiment: Ability to block norepinephrine-induced contraction in rabbit aorta.; format: functional
Cavia porcellus = species on record: Cavia porcellus; experiment: Ability to block B-HT 920-induced inhibition of inotropic response to field stimulation in superfused guinea pig atrium; format: functional; settings: Cardiac atrium
[9] = target: T6, Alpha-2B adrenergic receptor (Homo sapiens, UniProt P18089); experiment: biochemical; format: cell-based, CHO
T6 sequence (P18089 whole entry): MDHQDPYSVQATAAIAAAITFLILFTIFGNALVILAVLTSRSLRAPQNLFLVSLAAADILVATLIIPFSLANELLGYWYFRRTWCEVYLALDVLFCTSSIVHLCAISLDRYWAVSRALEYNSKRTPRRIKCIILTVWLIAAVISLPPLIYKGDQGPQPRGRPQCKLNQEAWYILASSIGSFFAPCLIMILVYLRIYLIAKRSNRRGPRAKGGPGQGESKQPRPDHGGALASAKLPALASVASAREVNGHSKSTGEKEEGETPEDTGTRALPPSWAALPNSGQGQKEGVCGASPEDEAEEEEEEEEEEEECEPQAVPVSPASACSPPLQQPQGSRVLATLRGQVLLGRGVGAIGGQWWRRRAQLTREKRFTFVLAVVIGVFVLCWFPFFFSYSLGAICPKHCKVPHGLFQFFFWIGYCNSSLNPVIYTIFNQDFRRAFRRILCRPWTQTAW

Monoamine oxidase = target: T7, Monoamine oxidase (Homo sapiens, UniProt P21397+P27338); experiment: Binding affinity for imidazoline receptor I-2; format: protein assay
T7 sequence (P21397 whole entry): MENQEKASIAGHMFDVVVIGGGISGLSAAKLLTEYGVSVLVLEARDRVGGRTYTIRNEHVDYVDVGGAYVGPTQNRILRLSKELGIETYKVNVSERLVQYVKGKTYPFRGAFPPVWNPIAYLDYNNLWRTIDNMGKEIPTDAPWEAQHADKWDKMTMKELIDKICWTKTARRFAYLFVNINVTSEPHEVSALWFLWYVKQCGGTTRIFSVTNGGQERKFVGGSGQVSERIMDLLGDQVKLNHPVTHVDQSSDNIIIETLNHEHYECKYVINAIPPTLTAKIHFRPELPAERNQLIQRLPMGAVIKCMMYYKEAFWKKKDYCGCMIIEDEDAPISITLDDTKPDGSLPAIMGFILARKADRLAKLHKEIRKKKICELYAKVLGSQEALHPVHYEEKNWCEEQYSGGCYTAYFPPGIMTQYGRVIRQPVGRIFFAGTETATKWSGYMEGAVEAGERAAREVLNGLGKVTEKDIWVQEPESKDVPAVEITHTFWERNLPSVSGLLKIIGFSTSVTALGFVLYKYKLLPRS
T7 sequence (P27338 whole entry): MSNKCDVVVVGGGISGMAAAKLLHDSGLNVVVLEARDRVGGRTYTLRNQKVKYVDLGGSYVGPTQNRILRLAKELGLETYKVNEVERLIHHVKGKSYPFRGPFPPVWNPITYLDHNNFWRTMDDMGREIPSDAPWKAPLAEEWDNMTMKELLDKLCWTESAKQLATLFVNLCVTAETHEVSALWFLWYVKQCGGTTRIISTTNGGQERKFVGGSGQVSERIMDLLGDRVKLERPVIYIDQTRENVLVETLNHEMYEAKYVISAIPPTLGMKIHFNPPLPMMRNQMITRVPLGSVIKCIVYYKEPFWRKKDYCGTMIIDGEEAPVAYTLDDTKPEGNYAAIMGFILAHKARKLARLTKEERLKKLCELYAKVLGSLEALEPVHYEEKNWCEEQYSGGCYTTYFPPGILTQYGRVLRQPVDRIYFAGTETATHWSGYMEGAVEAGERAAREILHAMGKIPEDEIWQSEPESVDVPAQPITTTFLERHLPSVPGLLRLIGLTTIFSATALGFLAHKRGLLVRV

EC50 [3]	EC50 [4]	SMILES	Ki [1]	Ki [2]	Ki [5]	Ki [6]	Ki [7]	Ki [8]	Kb (Canis familiaris)	Kb (Oryctolagus cuniculus)	Kb (Cavia porcellus)	Ki [9]	Ki (Monoamine oxidase)
–	–	COC(=O)C1=C(C)NC(C)=C(C(=O)NCCCN2CCC(c3ccccc3)(c3ccccc3)CC2)C1c1cccc([N+](=O)[O-])c1 (stereo unspecified)	0.4 nM	30 nM	–	–	–	–	–	–	–	–	–
–	–	CNC(=O)C1=C(C)NC(C)=C(C(=O)NCCCN2CCC(c3ccccc3)(c3ccccc3)CC2)C1c1ccc([N+](=O)[O-])cc1 (stereo unspecified)	3.1 nM	> 5000 nM	–	–	–	–	–	–	–	–	–
15 nM	15 nM	CNC[C@H](O)c1ccc(O)c(O)c1 (stereo in doubt; (-)) [EPINEPHRINE]	–	–	–	–	–	–	–	–	–	–	–
–	–	CCc1sc2ccc(Cl)c3c2c1CN(C)CC3	58 nM	–	35 nM	31 nM	1.2 nM	15 nM	84 nM	56 nM	> 3000 nM	15 nM	–
–	–	CC(C)=CCOc1ccc(Cl)c2c1CCN(C)CC2	33 nM	–	–	–	33 nM	87 nM	76 nM	150 nM	> 3000 nM	–	–
–	–	C=Cc1sc2ccc(Cl)c3c2c1CN(C)CC3	36 nM	–	21 nM	24 nM	1.6 nM	23 nM	29 nM	25 nM	> 3000 nM	3.4 nM	–
–	–	CN1CCc2cccc(Cl)c2CC1	449 nM	–	–	9.4 nM	126 nM	485 nM	42 nM	600 nM	17 nM	16 nM	–
–	–	CC1=C(C(N)=O)C(c2ccc([N+](=O)[O-])cc2)C(C(=O)NCCCN2CCC(c3ccccc3)(c3ccccc3)CC2)=C(C)N1 (stereo unspecified)	–	> 10 nM	–	–	–	–	–	–	–	–	–
–	–	c1ccc2c(c1)OCC(C1=NCCN1)O2 (stereo unspecified) [IDAZOXAN]	–	–	–	–	–	–	–	–	–	–	< 10 nM
–	–	CN1CCc2c(Cl)ccc3oc(Br)c(c23)C1	3300 nM	–	28 nM	54 nM	72 nM	783 nM	40 nM	> 1000 nM	> 3000 nM	14 nM	–
436 nM	436 nM	CNC[C@H](O)c1ccc(O)c(O)c1 (stereo in doubt; (+)) [EPINEPHRINE]	–	–	–	–	–	–	–	–	–	–	–
